US20130315843A1, “COMPOSITION FOR REDUCTION OF TRPA1 AND TRPV1 SENSATIONS” (priority 2012, published 2013)
“Also recorded” adds a separate entry of the source. Read-outs that look alike come from different tables or passages of the source.

Legend:
[1] = molecular target: T1, human TRPA1 (Homo sapiens, UniProt O75762); assay: FLIPR Ca2+ assay, reduction of hydrogen peroxide activation of TRPA1; assay type: cell-based; set-up: expressed in transfected cells; settings: for inhibition at 100 µM / inhibition at 400 µM: read-out: % Reduction of Hydrogen Peroxide TRPA1 Activation
T1 sequence (O75762 whole entry): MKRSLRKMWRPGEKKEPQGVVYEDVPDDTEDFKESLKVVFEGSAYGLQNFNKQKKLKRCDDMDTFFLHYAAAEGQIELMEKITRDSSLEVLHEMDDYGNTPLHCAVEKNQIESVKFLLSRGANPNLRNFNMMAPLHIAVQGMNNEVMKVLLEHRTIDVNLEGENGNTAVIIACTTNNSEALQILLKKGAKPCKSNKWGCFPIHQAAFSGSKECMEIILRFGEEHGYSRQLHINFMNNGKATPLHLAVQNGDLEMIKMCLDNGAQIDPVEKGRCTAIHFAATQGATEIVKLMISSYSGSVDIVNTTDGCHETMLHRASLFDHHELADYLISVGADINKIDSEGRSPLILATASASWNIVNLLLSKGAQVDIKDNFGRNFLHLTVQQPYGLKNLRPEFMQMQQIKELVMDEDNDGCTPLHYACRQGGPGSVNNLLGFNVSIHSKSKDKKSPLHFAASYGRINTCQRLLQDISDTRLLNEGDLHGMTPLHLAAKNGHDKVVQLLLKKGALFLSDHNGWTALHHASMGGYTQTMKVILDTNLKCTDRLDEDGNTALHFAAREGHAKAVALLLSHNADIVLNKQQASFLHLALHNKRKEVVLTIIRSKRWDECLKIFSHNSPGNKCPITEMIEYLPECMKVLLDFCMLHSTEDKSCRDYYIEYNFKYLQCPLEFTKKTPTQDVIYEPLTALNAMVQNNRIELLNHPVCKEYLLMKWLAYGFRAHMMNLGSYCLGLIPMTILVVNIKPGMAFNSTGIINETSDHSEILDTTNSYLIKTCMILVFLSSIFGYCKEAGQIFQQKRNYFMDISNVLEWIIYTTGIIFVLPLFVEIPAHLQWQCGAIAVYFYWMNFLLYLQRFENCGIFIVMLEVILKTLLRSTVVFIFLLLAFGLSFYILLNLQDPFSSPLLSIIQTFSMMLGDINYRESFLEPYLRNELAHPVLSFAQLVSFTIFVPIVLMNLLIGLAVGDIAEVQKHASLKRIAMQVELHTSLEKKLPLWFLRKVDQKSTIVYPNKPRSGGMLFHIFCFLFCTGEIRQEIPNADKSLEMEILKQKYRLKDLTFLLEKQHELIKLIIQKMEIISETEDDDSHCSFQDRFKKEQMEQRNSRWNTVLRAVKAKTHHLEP
Description: After centrifugation, a pellet of cells was formed in the bottom of the tube separating them from the supernatant solution.
The pelleted cells were re-suspended in 10 ml assay buffer and 90 μl aliquots (˜50,000 cells) per well delivered to a 96-well assay plate containing 10 μl of test compounds ([…]) or buffer control and incubated at room temperature for 30 minutes.

[2] = molecular target: T1, human TRPA1; assay: FLIPR Ca2+ assay, block of AITC activation of TRPA1; assay type: cell-based; set-up: expressed in transfected cells
Description: Intracellular Ca^++ levels were measured using cell based assays as described for EXAMPLES 1, 2, and 3.

[3] = molecular target: T1, human TRPA1; assay: FLIPR Ca2+ assay, reduction of L-Menthol activation of TRPA1; settings: 100 μM antagonist vs 1 mM L-Menthol
Description: In order to determine whether TRPA1 is activated, the intracellular calcium ion (Ca^2+) level from transfected cells with the TRPA1 receptor gene was measured. HEK-2 cells stably transfected with human TRPA1 were grown in 15 ml growth medium [high glucose DMEM (Dulbecco's Modification of Eagle's Medium) supplemented with 10% FBS (fetal bovine serum), 100 μg/ml Penicillin/streptomycin, 100 μg/ml G418] in a 75 Cm^2 flask for 3 days at 37° C. in a mammalian cell culture incubator set at 5% CO2. Cells were detached with addition of 10 ml of PBS (phosphate buffered saline) by hand shaking gently and transferred to a 50 ml tube and centrifuged at 850 rpm for 3 minutes to remove PBS. After centrifugation, a pellet of cells was formed in the bottom of the tube separating them from the supernatant solution. […] Fluo-4 is a fluorescent dye used for quantifying cellular Ca^2+ concentrations in the 100 nM to 1 μM range.
The pelleted cells were re-suspended in 10 ml assay buffer and 90 μl aliquots (˜50,000 cells) per well delivered to a 96-well assay plate containing 10 μl of test compounds (1 mM in assay buffer, final concentration 100 μM) or buffer control and incubated at room temperature for 30 minutes. After 30 minutes, the plate was placed into a fluorometric imaging plate reader (FLIPR384 from Molecular Devices) and basal fluorescence recorded (excitation wave length 488 nm and emission wave length 510 nm). Then 20 μl of the molecule being tested as a TRPA1 antagonist was added and fluorescence recorded. For determining the direct effect of test compounds on TRPA1, fluorescence was measured immediately after addition of each compound.
To determine if a compound was an antagonist or a desensitizer the direct effect of a test compound was determined. For determining the direct effect of test compounds on TRPA1 receptor activation, 100 μl aliquots (˜50,000 cells) of cells prepared as described above were delivered to a 96-well assay plate and basal fluorescence recorded as noted above. Then 20 μl of the compound being tested as a TRPA1 activator was added and fluorescence recorded. If any increase in fluorescence over background was noted, then the compound was considered an agonist.

[4] = molecular target: human TRPV1 (Homo sapiens, UniProt Q8NER1); assay: FLIPR Ca2+ assay, reduction of L-Menthol activation of TRPV1; settings: for inhibition at 100 µM: read-out: % Reduction of L-Menthol TRPV1 Activation
Sequence of human TRPV1 (Q8NER1 whole entry): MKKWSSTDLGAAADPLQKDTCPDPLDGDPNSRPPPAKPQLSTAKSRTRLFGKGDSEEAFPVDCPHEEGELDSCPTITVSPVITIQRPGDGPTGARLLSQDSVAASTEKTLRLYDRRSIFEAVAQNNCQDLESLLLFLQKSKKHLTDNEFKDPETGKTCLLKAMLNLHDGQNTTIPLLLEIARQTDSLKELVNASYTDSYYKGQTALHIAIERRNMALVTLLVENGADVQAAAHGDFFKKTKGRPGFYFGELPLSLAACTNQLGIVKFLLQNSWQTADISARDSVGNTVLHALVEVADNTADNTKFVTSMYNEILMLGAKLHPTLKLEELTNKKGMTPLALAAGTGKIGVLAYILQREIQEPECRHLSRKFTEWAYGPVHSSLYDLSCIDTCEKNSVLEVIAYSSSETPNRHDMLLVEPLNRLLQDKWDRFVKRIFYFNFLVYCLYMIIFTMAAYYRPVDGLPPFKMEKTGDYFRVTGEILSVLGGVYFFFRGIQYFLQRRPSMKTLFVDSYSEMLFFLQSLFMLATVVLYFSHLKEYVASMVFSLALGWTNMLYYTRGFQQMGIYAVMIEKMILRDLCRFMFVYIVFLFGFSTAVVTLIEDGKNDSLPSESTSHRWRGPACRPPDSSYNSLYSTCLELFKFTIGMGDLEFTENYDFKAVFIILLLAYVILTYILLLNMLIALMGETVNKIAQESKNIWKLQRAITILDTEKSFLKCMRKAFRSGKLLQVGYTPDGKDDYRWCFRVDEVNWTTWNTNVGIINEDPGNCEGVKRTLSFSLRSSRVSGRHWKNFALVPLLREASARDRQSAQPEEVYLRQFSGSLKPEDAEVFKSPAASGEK
Description: To determine whether TRPV1 was activated, the intracellular calcium ion (Ca^+2) levels from cells transfected with the TRPV1 receptor gene was measured. HEK-239 cells stably transfected with human TRPV1 were grown in 15 ml growth medium [high glucose DMEM (Dulbecco's Modification of Eagle's Medium) supplemented with 10% FBS (fetal bovine serum), 100 g/ml Penicillin/streptomycin, 100 g/ml G418] in a 75 Cm2 flask for 3 days at 33° C. in a mammalian cell culture incubator set at 5% CO2. Cells were detached with addition of 10 ml of PBS (phosphate buffered saline) by hand shaking gently. Cells were transferred to a 50 ml tube and centrifuged at 850 rpm for 3 minutes to remove PBS. After centrifugation, a pellet of cells formed in the bottom of the tube separating them from the supernatant solution. The supernatant was discarded and the cell pellet suspended in 1 ml of fresh growth medium to which 5 μl (12.5 g) of Fluo-4 AM (Molecular Probes, Inc., Eugene, Oreg.) calcium indicator was added and incubated for 30 minutes with gentle shaking.
The pelleted cells were re-suspended in 10 ml assay buffer and 90 μl aliquots (˜50,000 cells) per well delivered to a 96-well assay plate containing 10 μl of test compounds (1 mM in assay buffer, final concentration 100 μM) or buffer control and incubated at room temperature for 30 minutes. After 30 minutes, the plate was placed into a fluorometric imaging plate reader (FLIPR384 from Molecular Devices) and basal fluorescence recorded (excitation wave length 488 nm and emission wave length 510 nm). Then 20 μl of the compound being tested as a TRPV1 receptor activator was added and fluorescence recorded. […] It may be no difference (no effect), or negative (means antagonist or desensitizer) or positive (enhancer, also known as positive allosteric modulator). […] To determine if a compound was an antagonist or a desensitizer, the direct effect of a test compound was determined. For determining the direct effect of test compounds on TRPV1, 100 μl aliquots (˜50,000 cells) of cells prepared as described above were delivered to a 96-well assay plate and basal fluorescence recorded as noted above. Then 20 μl of the compound being tested as a TRPV1 receptor activator was added and fluorescence recorded. If any increase in fluorescence over background was noted, then the compound was considered an agonist. The agonist activity was expressed relative to that observed with a benchmark agonist such as 350 nM Capsaicin for TRPV1.
100 μM of antagonist was tested against 1 mM of L-Menthol to determine the level of reduced TRPV1 receptor activation by L-Menthol. Each antagonist compound was run with 1 mM of L-Menthol as a control and the antagonist activity of each compound was determined by comparing the Ca^2+ levels of the control with the antagonist compound being tested.

[5] = 100 μM antagonist vs 500 μM hydrogen peroxide
[6] = compound 100 μM against 200 μM hydrogen peroxide, Sets 1-4
[7] = antagonist 100 μM against 1 mM L-Menthol
[8] = 400 μM antagonist vs 500 μM hydrogen peroxide
[9] = antagonist 400 μM against 200 μM hydrogen peroxide

Compound | Block of hydrogen peroxide activation of TRPA1 [1, 5] | Average Ca++ Counts [1, 6] | inhibition at 100 µM [1, 6] | Block of AITC activation of TRPA1 ([2]; 100 μM antagonist) | Block of L-Menthol activation of TRPA1 [3] | Average Ca2+ Counts [4, 7] | inhibition at 100 µM [4] | further results
CCCCCCCCCCCCCCCCCC(=O)OCC(O)CO (racemic) [1-stearoyl-rac-glycerol] | Block menthol, H2O2, and AITC on TRPA1 | 3131.0 Counts | 55.5% | Block menthol, H2O2, and AITC on TRPA1 | Block menthol, H2O2, and AITC on TRPA1 | 4708.0 Counts | 26.4% | –
CC(C)C=C(C=O)c1ccccc1 (single isomer, unassigned) [4-Methyl-2-phenyl-2 Pentenal (mixture of cis and trans isomers)] | – | – | – | – | – | – | – | Block of hydrogen peroxide activation of TRPA1 [1]: Block both H2O2 and AITC on TRPA1; Block of AITC activation of TRPA1 ([2]; 400 μM antagonist): Block both H2O2 and AITC on TRPA1
CC(S)CS (stereo not drawn) [1,2-propanedithiol] | Block both H2O2 and AITC on TRPA1 | 2194.5 Counts | – | Block both H2O2 and AITC on TRPA1 | – | – | – | % Reduction of Hydrogen Peroxide TRPA1 Activation [1, 6]: 68.8%
CC(S)C(C)S (stereo not drawn) [2,3-butanedithiol] | Block menthol, H2O2, and AITC on TRPA1 | 1280.5 Counts | 87.9% | Block menthol, H2O2, and AITC on TRPA1 | Block menthol, H2O2, and AITC on TRPA1 | 586.0 Counts | 64.8% | –
CC1(O)CSC(C)(O)CS1 (stereo not drawn) [2,5-dimethyl-1,4-dithiane-2,5-diol] | Block menthol, H2O2, and AITC on TRPA1 | 2420.0 Counts | 77.2% | Block menthol, H2O2, and AITC on TRPA1 | Block menthol, H2O2, and AITC on TRPA1 | 713.7 Counts | 58.9% | –
Cc1cc(S)c(C)o1 [2,5-dimethylfuran-3-thiol] | – | – | – | BLOCK BOTH MENTHOL AND AITC ON TRPA1 | BLOCK BOTH MENTHOL AND AITC ON TRPA1 | 1443.0 Counts | 25.2% | –
SCCc1cnccn1 [2-Pyrazinyl ethanethiol] | Block menthol, H2O2, and AITC on TRPA1 | – | – | Block menthol, H2O2, and AITC on TRPA1 | Block menthol, H2O2, and AITC on TRPA1 | – | – | –
O=C(CCl)c1ccccc1 [2-chloroacetophenone] | Block menthol, H2O2, and AITC on TRPA1 | 1199.5 Counts | – | Block menthol, H2O2, and AITC on TRPA1 | Block menthol, H2O2, and AITC on TRPA1 | 1313.0 Counts | 31.2% | inhibition at 100 µM [1]: 88.7%
CCc1ccccc1S [2-ethylbenzenethiol] | Block menthol, H2O2, and AITC on TRPA1 | 4808.5 Counts | 54.6% | Block menthol, H2O2, and AITC on TRPA1 | Block menthol, H2O2, and AITC on TRPA1 | – | – | –
Cc1ccc(C=O)c(O)c1 [2-hydroxy-4-methylbenzaldehyde] | Block both H2O2 and AITC on TRPA1 | 3429.0 Counts | 51.3% | Block both H2O2 and AITC on TRPA1 | – | – | – | –
CC1SCCS1 [2-methyl-1,3-dithiolane] | Block menthol, H2O2, and AITC on TRPA1 | 2402.0 Counts | 72.5% | Block menthol, H2O2, and AITC on TRPA1 | Block menthol, H2O2, and AITC on TRPA1 | 2650.5 Counts | 34.3% | –
Cc1occc1S [2-methyl-3-furanthiol] | – | – | – | BLOCK BOTH MENTHOL AND AITC ON TRPA1 | BLOCK BOTH MENTHOL AND AITC ON TRPA1; also recorded: BLOCK ONLY MENTHOL/TRPA1 | 2835.5 Counts | 38.9% | –
CSCCCN=C=S [3-(methylthio)propyl isothiocyanate] | – | – | – | BLOCK BOTH MENTHOL AND AITC ON TRPA1 | BLOCK BOTH MENTHOL AND AITC ON TRPA1 | 1426.7 Counts | 25.9% | –
C=CCc1cc(OC)c(O)c(OC)c1 [4-Allyl-2,6-dimethoxyphenol] | – | – | – | – | – | – | – | Block of hydrogen peroxide activation of TRPA1 [1, 8]: Block both H2O2 and AITC on TRPA1; inhibition at 400 µM [1, 9]: 54%; Block of AITC activation of TRPA1 ([2]; 400 μM antagonist): Block both H2O2 and AITC on TRPA1
CCCC(=O)OCc1ccc(OC)cc1 [Anisyl Butyrate] | – | – | – | – | – | – | – | Block of hydrogen peroxide activation of TRPA1 [1, 8]: Block both H2O2 and AITC on TRPA1; % Reduction of Hydrogen Peroxide TRPA1 Activation [1, 9]: 54%; Block of AITC activation of TRPA1 ([2]; 400 μM antagonist): Block both H2O2 and AITC on TRPA1
c1ccc2scnc2c1 [benzothiazole] | – | 5513.0 Counts | 48% | Block both H2O2 and AITC on TRPA1 | – | – | – | –
O=C(C=Cc1ccccc1)OCc1ccccc1 [benzyl cinnamate] | Block both H2O2 and AITC on TRPA1 | 4828.5 Counts | 54.4% | Block both H2O2 and AITC on TRPA1 | – | – | – | –
CCOC(=O)CC1(C)OCCO1 [ethyl acetoacetate ethylene ketal] | Block both H2O2 and AITC on TRPA1 | 3298.5 Counts | 53.2% | Block both H2O2 and AITC on TRPA1 | – | – | – | –
CCOC(=O)CC(C)=O [ethyl acetoacetate] | Block both H2O2 and AITC on TRPA1 | 3314.5 Counts | 43.6% | Block both H2O2 and AITC on TRPA1 | – | – | – | –
CC(C)OC(=O)C(C)C [isobutyric acid isopropyl ester] | Block both H2O2 and AITC on TRPA1 | 3392.5 Counts | 51.8% | Block both H2O2 and AITC on TRPA1 | – | – | – | –
COc1ccccc1C=CC=O [o-Methoxycinnamaldehyde] | – | – | – | – | – | – | – | Block of hydrogen peroxide activation of TRPA1 [1, 8]: Block both H2O2 and AITC on TRPA1; inhibition at 400 µM [1, 9]: 51%; Block of AITC activation of TRPA1 ([2]; 400 μM antagonist): Block both H2O2 and AITC on TRPA1
O=C(Oc1ccccc1)c1ccccc1O [phenyl salicylate] | Block both H2O2 and AITC on TRPA1 | 2893.5 Counts | 72.7% | Block both H2O2 and AITC on TRPA1 | – | – | – | –
O=C(O)CCC(=O)O [succinic acid] | – | – | – | BLOCK BOTH MENTHOL AND AITC ON TRPA1 | BLOCK BOTH MENTHOL AND AITC ON TRPA1 | 1045.0 Counts | 43.6% | –
CCCC/C=C/C=C/C=O [trans, trans-2,4-Nonadienal] | – | – | – | – | – | – | – | Block of hydrogen peroxide activation of TRPA1 [1, 8]: Block both H2O2 and AITC on TRPA1; inhibition at 400 µM [1, 9]: 67%; Block of AITC activation of TRPA1 ([2]; 400 μM antagonist): Block both H2O2 and AITC on TRPA1
zinc gluconate | – | – | – | BLOCK BOTH MENTHOL AND AITC ON TRPA1 | BLOCK BOTH MENTHOL AND AITC ON TRPA1 | 3963.5 Counts | – | % Reduction of L-Menthol TRPV1 Activation [4, 7]: 38.1%
